Patent publication US6479435B1, “Diaryl ethers and processes for their preparation and herbicidal and desiccant compositions containing them” (ISK Americas Incorporated, priority 1997, dated 2002)

Assays:
Assay type in all cases: in vivo
[1] = test system: Johnsongrass (Sorghum halepense, SORHA); assay: Pre-emerge greenhouse herbicide test, phytotoxicity rating; settings: 500 g ai/ha, 14 days after application, rating scale 0-100
In short: (§1)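 Seeds sown in sandy loam mix one day before track-sprayer application of compounds in acetone at 125–1000 g ai/ha (187 l/ha), then surface-watered to incorporate and bottom-watered. Visual rating 14 days after application on a 0–100 scale (0 = no damage, 100 = all plants dead).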

[2] = test system: barnyardgrass (Echinochloa crusgalli, ECHCG); assay: as above; settings: 14 days after application, rating scale 0-100
In short: as §1

[3] = test system: common ragweed (Ambrosia artemisiifolia L., AMBEL); assay: as above; settings: 14 days after application, rating scale 0-100
In short: as §1

[4] = test system: green foxtail (Setaria viridis, SETVI); assay: as above; settings: 14 days after application, rating scale 0-100
In short: as §1

[5] = test system: ivyleaf morningglory (Ipomoea hederacea, IPOHE); assay: as above; settings: 14 days after application, rating scale 0-100
In short: as §1

[6] = test system: lambsquarters (Chenopodium album, CHEAL); assay: as above; settings: 14 days after application, rating scale 0-100
In short: as §1

[7] = test system: large crabgrass (Digitaria sanguinalis, DIGSA); assay: as above; settings: 14 days after application, rating scale 0-100
In short: as §1

[8] = test system: redroot pigweed (Amaranthus retroflexus, AMARE); assay: as above; settings: 14 days after application, rating scale 0-100
In short: as §1

[9] = test system: sicklepod (Cassia obtusifolia, CASOB); assay: as above; settings: 14 days after application, rating scale 0-100
In short: as §1

[10] = test system: velvetleaf (Abutilon theophrasti, ABUTH); assay: as above; settings: 14 days after application, rating scale 0-100
In short: as §1

[11] = test system: field corn (Zea mays L., var. Dekalb 535, CORN); assay: Pre-emerge greenhouse test, crop damage rating; settings: 14 days after application, rating scale 0-100
In short: as §1

[12] = test system: upland rice (Oryza sp., var.Tebonnet, RICE); assay: Pre-emerge greenhouse test, crop damage rating; settings: 14 days after application, rating scale 0-100
In short: as §1

[13] = test system: soybean (Glycine max L., var. Pella 86, SOY); assay: Pre-emerge greenhouse test, crop damage rating; settings: 14 days after application, rating scale 0-100
In short: as §1

[14] = test system: common ragweed (Ambrosia artemisiifolia L., AMBEL); assay: Post-emerge greenhouse herbicide test, phytotoxicity rating; settings: 14 days after application
In short: (§2)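 Compounds in acetone with 0.25% v/v non-ionic surfactant were track-sprayed at 187 l/ha over plants at the 2-3 leaf stage, at 63 to 1000 g ai/ha. Pots were bottom-watered. Injury was scored visually 14 days later on a 0-100 scale, where 0 is no damage and 100 is complete plant death.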

[15] = test system: Johnsongrass (Sorghum halepense, SORHA); assay: as above; settings: 500 g al/ha, 14 days after application
In short: as §2

[16] = test system: barnyardgrass (Echinochloa crusgalli, ECHCG); assay: as above; settings: 14 days after application
In short: as §2

[17] = test system: green foxtail (Setaria viridis, SETVI); assay: as above; settings: 14 days after application
In short: as §2

[18] = test system: ivyleaf morningglory (Ipomoea hederacea, IPOHE); assay: as above; settings: 14 days after application
In short: as §2

[19] = test system: lambsquarters (Chenopodium album, CHEAL); assay: as above; settings: 14 days after application
In short: as §2

[20] = test system: large crabgrass (Digitaria sanguinalis, DIGSA); assay: as above; settings: 14 days after application
In short: as §2

[21] = test system: redroot pigweed (Amaranthus retroflexus, AMARE); assay: as above; settings: 14 days after application
In short: as §2

[22] = test system: sicklepod (Cassia obtusifolia, CASOB); assay: as above; settings: 14 days after application
In short: as §2

[23] = test system: velvetleaf (Abutilon theophrasti, ABUTH); assay: as above; settings: 14 days after application
In short: as §2

[24] = test system: field corn (Zea mays L., var. Dekalb 535, CORN); assay: Post-emerge greenhouse test, crop damage rating; settings: 14 days after application
In short: as §2

[25] = test system: upland rice (Oryza sp., var.Tebonnet, RICE); assay: Post-emerge greenhouse test, crop damage rating; settings: 14 days after application
In short: as §2

[26] = test system: soybean (Glycine max L., var. Pella 86, SOY); assay: Post-emerge greenhouse test, crop damage rating; settings: 14 days after application
In short: as §2

Compound: O=C1C2CCCCN2C(=O)N1c1cc(Oc2ncccc2C(F)(F)F)c(Cl)cc1F (centres unmarked) [Compound 8-4]
- phytotoxicity rating SORHA [1]: 70
- phytotoxicity rating ECHCG ([2]; 125 g ai/ha): 10
- phytotoxicity rating ECHCG ([2]; 500 g ai/ha): 30
- phytotoxicity rating AMBEL ([3]; 125 g ai/ha): 20
- phytotoxicity rating AMBEL ([3]; 500 g ai/ha): 0
- phytotoxicity rating SETVI ([4]; 125 g ai/ha): 50
- phytotoxicity rating SETVI ([4]; 500 g ai/ha): 100
- phytotoxicity rating IPOHE ([5]; 125 g ai/ha): 0
- phytotoxicity rating IPOHE ([5]; 500 g ai/ha): 0
- phytotoxicity rating CHEAL ([6]; 125 g ai/ha): 70
- phytotoxicity rating CHEAL ([6]; 500 g ai/ha): 100
- phytotoxicity rating DIGSA ([7]; 125 g ai/ha): 30
- phytotoxicity rating DIGSA ([7]; 500 g ai/ha): 90
- phytotoxicity rating AMARE ([8]; 125 g ai/ha): 100
- phytotoxicity rating AMARE ([8]; 500 g ai/ha): 100
- phytotoxicity rating CASOB ([9]; 125 g ai/ha): 30
- phytotoxicity rating CASOB ([9]; 500 g ai/ha): 90
- phytotoxicity rating ABUTH ([10]; 125 g ai/ha): 100
- phytotoxicity rating ABUTH ([10]; 500 g ai/ha): 100
- crop damage rating CORN ([11]; 125 g ai/ha): 0
- crop damage rating CORN ([11]; 500 g ai/ha): 0
- crop damage rating RICE ([12]; 125 g ai/ha): 0
- crop damage rating RICE ([12]; 500 g ai/ha): 30
- crop damage rating SOY ([13]; 125 g ai/ha): 0
- crop damage rating SOY ([13]; 500 g ai/ha): 0
- AMBEL phytotoxicity rating (0-100) ([14]; 63 g al/ha): 0
- AMBEL phytotoxicity rating (0-100) ([14]; 500 g al/ha): 0
- SORHA phytotoxicity rating (0-100) [15]: 0
- ECHCG phytotoxicity rating (0-100) ([16]; 63 g al/ha): 0
- ECHCG phytotoxicity rating (0-100) ([16]; 500 g al/ha): 0
- SETVI phytotoxicity rating (0-100) ([17]; 63 g al/ha): 10
- SETVI phytotoxicity rating (0-100) ([17]; 500 g al/ha): 10
- IPOHE phytotoxicity rating (0-100) ([18]; 63 g al/ha): 50
- IPOHE phytotoxicity rating (0-100) ([18]; 500 g al/ha): 60
- CHEAL phytotoxicity rating (0-100) ([19]; 63 g al/ha): 70
- CHEAL phytotoxicity rating (0-100) ([19]; 500 g al/ha): 75
- DIGSA phytotoxicity rating (0-100) ([20]; 63 g al/ha): 0
- DIGSA phytotoxicity rating (0-100) ([20]; 500 g al/ha): 0
- AMARE phytotoxicity rating (0-100) ([21]; 63 g al/ha): 60
- AMARE phytotoxicity rating (0-100) ([21]; 500 g al/ha): 100
- CASOB phytotoxicity rating (0-100) ([22]; 63 g al/ha): 20
- CASOB phytotoxicity rating (0-100) ([22]; 500 g al/ha): 40
- ABUTH phytotoxicity rating (0-100) ([23]; 63 g al/ha): 70
- ABUTH phytotoxicity rating (0-100) ([23]; 500 g al/ha): 85
- CORN crop damage rating (0-100) ([24]; 63 g al/ha): 5
- CORN crop damage rating (0-100) ([24]; 500 g al/ha): 10
- RICE crop damage rating (0-100) ([25]; 63 g al/ha): 0
- RICE crop damage rating (0-100) ([25]; 500 g al/ha): 0
- SOY crop damage rating (0-100) ([26]; 63 g al/ha): 20
- SOY crop damage rating (0-100) ([26]; 500 g al/ha): 30
